Values of other authors, collected in patent US20040097484A1 (priority 2002, published 2004).

Settings: in vivo

Structure (SMILES): COc1ccc2c3c1O[C@H]1C[C@@H](O)C=C[C@@]31CCN(C)C2 [galantamine, 4a, 5,9, 10, 11, 12-hexahydro-3-methoxy-11-methyl-6H-benzofuro [3a, 3,2-e][2] benzazepin-6-ol]
- effective plasma concentration duration (sufficient elimination half-life): at least 4 hours
